How the values were obtained:
[1] = system: ERK phosphorylation in MCF10A-RCP cells
Experimental: Western blot analysis. Whole cell lysates were prepared using RIPA buffer. The proteins were separated by SDS-PAGE and transferred to Hybond-P PVDF membrane (GE Healthcare). Antibodies to RCP (Genway, Catalog Number (CN): 15-288-21574A), β-actin (Sigma, CN: A5441), phospho-Akt (Cell Signaling Technology, CN: 9271), Akt (Cell Signaling Technology, CN: 9272), phospho-Erk (Cell Signaling Technology, CN: 9101), and Erk (Cell Signalling, CN: 9102) were used to probe the membrane, and antibody-protein complex was detected by HRP-conjugated antibodies and ECL (Amersham Biosciences).
For the MAPK inhibition assays, cells were treated with MEK inhibitor U0126 (Promega) overnight in medium with 0.5% serum before being re-plated into 96-well plates.

MCF10A-RCP cells = conditions: 30 uM U0126
Experimental: Cell proliferation and colony formation. Cells were plated at a density of 5000 cells/well in 96-well plates, and cell proliferation was measured in quadruplicate (ie, 4 wells per condition) using WST-1 (Roche) according to the manufacturer's protocol. For the MAPK inhibition assays, cells were treated with MEK inhibitor U0126 (Promega) overnight in medium with 0.5% serum before being re-plated into 96-well plates.

SMILES: N#CC(=C(/N)Sc1ccccc1N)/C(C#N)=C(\N)Sc1ccccc1N [U0126]
- RCP-induced phosphorylation of ERK ([1]; 30 μM of U0126): reduced to baseline
- ERK phosphorylation status ([1]; range of U0126 concentrations): concentration dependent
- proliferation (MCF10A-RCP cells): reduction of proliferation down to control levels

From patent US8663915B2, “Methods of controlling tumorigenesis and diagnosing the risk thereof” (Agency for Science, Technology and Research, priority 2007, dated 2014)
